What all share (format): cell-based
The test system of one assay is H460. Description: Cytotoxicity, adherent cells, 14C-thymidine incorporation (cell proliferation). The settings on record: NCI-H460 human non-small cell lung cancer, 96 h treatment. How it is done: NCI-H460 is a human non-small cell lung cancer which has a mutation in the K-ras gene. This cell is sensitive to platinum compounds. In this cell line, cisplatin forms more adducts than oxaliplatin at the same concentration and yet the percentage repair is higher for oxaliplatin (DNA Repair 2006, 5: 219-225).
(§1) Cell proliferation is evaluated by the incorporation of ^14C-thymidine into the DNA of the cells. A549, CH1, CH1/DDP and H460 are cultured in Dulbecco's modified Eagle's medium (DMEM), SK-OV-3 in Mc-Coy medium, A2780 and A2780/DDP in RPMI1640 medium. All the media contain 10% foetal calf serum, 2 mM L-glutamine, 100 units/ml of penicillin and […] of streptomycin. The incubation is performed at 37° C. in a 95% air/5% CO2 atmosphere.
(§2) The cells, at the exponential growth phase, are introduced into the wells of a Cytostar 96-well plate, containing a scintillation fluid (Cytostar-T scintillating microplate, GE Healthcare Bio-Sciences AB, Uppsala, Sweden), at the density of 5×10^3 to 10^4 cells per well, in an amount of 180 μl per well. After incubating for 4 hours, the test compounds are added. The compounds are prepared beforehand as a stock solution at the concentration of 10 mM in DMSO. A serial dilution is performed before the compounds are brought into contact with the cells in a volume of 10 μl. After incubating for 72 hours at 37° C. in an atmosphere of 95% air/5% CO2, 0.1 μCi/well of ^14C-thymidine is added. 24 h later (total 96 h of treatment), the incorporation of ^14C-thymidine is recorded on a suitable scintillation counter (MicroBeta radioactivity counting, Perkin-Elmer Life Sciences, Boston, Mass., USA). The mean values obtained in the experimental groups are divided by the mean values obtained in the control groups in order to obtain percentages relative to the controls.
(§3) The IC50 values are evaluated from curves presenting the percentage viability as a function of the concentration of the test compound, using the Biostat speed software. The IC50 is defined as the concentration of the compound which inhibits 50% of the cell proliferation or 50% of the cell viability.

The subject of a further assay is CCRF-CEM cells. Briefly: Cytotoxicity, non-adherent CCRF-CEM cells, CellTiter-Glo luminescent cell viability. The following applies: CCRF-CEM human T leukaemia, 96 h incubation. The procedure:
CCRF-CEM is a human T leukaemia (Cancer 1965, 18: 522-529). Oxaliplatin induces bifunctional lesions such as inter- and intra-DNA strand adducts on these CCRF-CEM cells (Mol Pharmacol 2000, 58: 920-927). […] This deficiency makes these cells particularly […] to alkylating agents and to platinum compounds.
For the non-adherent CCRF-CEM cells, the cell viability is measured by the luminescence test CellTiter-Glo® Luminescent Cell Viability Assay (Promega, Madison, Wis., USA). When it is added to the cells, the reagent produces a luminescence in the presence of the ATP of the living cells. The results are evaluated on a suitable reader (Envision, Perkin-Elmer Life Sciences, Boston, Mass., USA).
The CCRF-CEM cells are cultured in RPMI1640 medium containing 10% foetal calf serum, 2 mM L-glutamine, 100 units/ml of penicillin and […] of streptomycin, at 37° C. in a 95% air/5% CO2 atmosphere. The cells, at the exponential growth phase, are introduced into the wells of a 96-well plate at the density of 5×10^3 cells per well in an opaque plate (Greiner), in a volume of 150 μl. After incubating for 4 h at 37° C. in a 95% air/5% CO2 atmosphere, the compounds (concentrated 20-fold) are added in a volume of 8 μl. The compounds are prepared beforehand as a stock solution at the concentration of 10 mM in DMSO. A serial dilution is performed before the compounds are brought into contact with the cells. After incubating for 96 h at 37° C., 100 μl of agents (CellTiter-Glo) are added. After lysing the cells, the release of ATP is evaluated on the Envision reader.
as §3

In another assay the test system is CH1/DDP. Description: Cytotoxicity, adherent cells, 14C-thymidine incorporation (cell proliferation). The settings on record: CH1/DDP cisplatin-resistant human ovarian cancer, 96 h treatment.
Text: (§4) CH1 and CH1 CisR are human ovarian cancers which are sensitive and resistant to cisplatin, respectively. The relative sensitivity of the CH1 cell may be at least partially attributed to a deficiency of a gene involved in repair processes and which is capable of removing the adducts (Chemico-Biological Interactions, 1999; 123:11-29). The CH1cisR cell is resistant to cisplatin through a poorly known mechanism of DNA repair, or increase in the tolerance of the cell to the damage caused by cisplatin to the DNA of this cell (Mol Pharmacol 2003; 63:933-944, Cancer Res 52: 3857-3864).
as §1, §2, §3

The next assay deals with CH1. The description is as above. The settings on record: CH1 human ovarian cancer, 96 h treatment.
Text: as §4, §1, §2, §3

For the next assay, the system named is A2780/DDP. The description is as above. The following applies: A2780/DDP cisplatin-resistant human ovarian cancer, 96 h treatment.
Text: (§5) A2780 and A2780/DDP are human ovarian cancer lines. […] The resistance of the A2780/DDP line is of the acquired type and involves various mechanisms: —reduction in the capacity for internalization of cisplatin, —replicative bypass (this is defined as the possibility for a replicative complex to synthesize DNA beyond the site of damage) (Cancer Res 1994; 54:3500-3505), —active detoxification by glutathione (Exp Oncol 2005; 27:191-195), —low activity of Caspase-3, enzymes involved in the process of programmed cell death (J Cancer Res Clin Oncol 2004; 130:423-428) and finally high nuclear efflux of platinum compounds (Oncol Rep 2004; 12:1365-1370).
as §1, §2, §3

A further assay relates to A2780. The description is as above. The settings on record: A2780 human ovarian cancer, 96 h treatment.
Text: as §5, §1, §2, §3

A further assay relates to SK-OV-3. Described as above. The settings on record: SK-OV-3 human ovarian cancer, 96 h treatment, read-out: SKOV3 IC50. How it is done:
SK-OV-3 is a human ovarian cancer. […] This cell has an intrinsic mechanism of resistance to cisplatin which is linked to high levels of glutathione (Br J Cancer 1998; 78:175-180). This cell line is commonly used to explore the effects of high levels of glutathione on the resistance to platinum compounds (Br J Cancer 1996, 74: 380-386).
as §1, §2, §3

Values joined by “and” are separate entries in the source; they are usually repeats but may differ in a detail not shown here. Equal entries are not always repeated. Where only a bound is given, the exact number is not on record here.

Turning to `Cn1c(=O)c2c(n(C)c1=O)n(C)[c](=[Pt-]([I])([I])[NH2+]C1CCCCC1)n2C` [Example 9, trans-diiodo(N-cyclohexylamine)(1,3,7,9-tetramethylxanthin-8-ylidene)platinum(II)], the half-maximal inhibitory concentration (IC50) in the assay with H460 was found to be 1600 nM; in the assay with CCRF-CEM cells, 2700 nM; with CH1/DDP it was 2100 nM; with CH1, 2200 nM; with A2780/DDP, 1400 nM; in the assay with A2780 it was 1800 nM. Also, the IC50 in the assay on SK-OV-3 is over 10 µM.
Turning to `Cn1ccn(Cc2ccccc2)[c]1=[Pt-]([I])([I])[NH2+]C1CCCCC1` [Example 5, trans-diiodo(N-cyclohexylamine)(1-methyl-3-benzylimidazol-2-ylidene)platinum(II)], the concentration for half-maximal inhibition (IC50) was 1700 nM and 2700 nM in the assay on H460; 1200 nM and 1400 nM in the assay on CCRF-CEM cells; 2400 nM with CH1/DDP; 2400 nM in the assay on CH1; 1800 nM in the assay with A2780/DDP; 900 nM with A2780. The half-inhibitory concentration (IC50) in the assay on SK-OV-3 is 6.5 µM.
